Data published in the supplement of paper PMC4862054.
Values joined by “and” are separate entries in the source; they are usually repeats but may differ in a detail not shown here. Identical values can stand only once.

test system: SK-BR-3; test: normalised viability (% of control), CellTiter-Blue; higher = more viable cells (about 100 = DMSO control); conditions: 100 nM; incubation time: 72 h
Procedure: (§1)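 DSRT, CellTiter-Blue viability, 72 h incubation. Signal is normalised to DMSO and benzethonium chloride controls. Value is the normalised response at dose 3.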

Q: Which normalised viability does the source give for `CN(Cc1cnc2nc(N)nc(N)c2n1)c1ccc(C(=O)N[C@@H](CCC(=O)O)C(=O)O)cc1` [Methotrexate] here?
A: 49%

Q: Which normalised viability does the source give for `COc1c2occc2cc2ccc(=O)oc12` [Methoxsalen] here?
A: 98.6%

Q: With `CO[C@@H]1[C@H](N(C)C(=O)c2ccccc2)C[C@H]2O[C@]1(C)n1c3ccccc3c3c4c(c5c6ccccc6n2c5c31)C(=O)NC4` [Midostaurin] as the molecule, how does the normalised viability read?
A: 102%

Q: How did the normalised viability turn out when `CO[C@@]12[C@H](COC(N)=O)C3=C(C(=O)C(C)=C(N)C3=O)N1C[C@@H]1N[C@@H]12` [Mitomycin C] was run?
A: 91.9%

Q: Which normalised viability does the source give for `CC1(C)CCC(c2ccc(Cl)cc2)=C(CN2CCN(c3ccc(C(=O)NS(=O)(=O)c4ccc(N[C@H](CCN5CCOCC5)CSc5ccccc5)c(S(=O)(=O)C(F)(F)F)c4)cc3)CC2)C1` [Navitoclax] here?
A: 58.8%

Q: `Cc1cn(-c2cc(NC(=O)c3ccc(C)c(Nc4nccc(-c5cccnc5)n4)c3)cc(C(F)(F)F)c2)cn1` [Nilotinib] was tested. Which normalised viability did it give?
A: 73.4% and 86.6%

Q: How did the normalised viability turn out when `C=CCN(/C=C1/C(=O)O[C@H](COC)[C@@]2(C)C1=C(O)C(=O)C1=C2[C@H](OC(C)=O)C[C@]2(C)C(=O)CC[C@@H]12)CC=C` [PX-866] was run?
A: 78.1%

Q: With `CC[C@H](CO)Nc1nc(NCc2ccccc2)c2ncn(C(C)C)c2n1` [Roscovitine] as the molecule, how does the normalised viability read?
A: 73.1%

Q: `O=C(CCCCCCC(=O)Nc1ccccc1)NO` [Vorinostat] was tested. Which normalised viability did it give?
A: 59.4% and 81.4%

test system: MFM-223; test: as above; conditions: 10 nM; incubation time: 72 h
Procedure: as §1

Q: `CCNC(=O)c1noc(-c2cc(C(C)C)c(O)cc2O)c1-c1ccc(CN2CCOCC2)cc1` [NVP-AUY922] was tested. Which normalised viability did it give?
A: 41.1%

same assay, conditions: 100 nM; incubation time: 72 h

Q: Which normalised viability does the source give for `C=CCn1c(=O)c2cnc(Nc3ccc(N4CCN(C)CC4)cc3)nc2n1-c1cccc(C(C)(C)O)n1` [MK1775] here?
A: 83.3%

Q: How did the normalised viability turn out when `CN(Cc1cnc2nc(N)nc(N)c2n1)c1ccc(C(=O)N[C@@H](CCC(=O)O)C(=O)O)cc1` [Methotrexate] was run?
A: 98.2%

Q: `COc1c2occc2cc2ccc(=O)oc12` [Methoxsalen] was tested. Which normalised viability did it give?
A: 92.9%

Q: With `CO[C@@H]1[C@H](N(C)C(=O)c2ccccc2)C[C@H]2O[C@]1(C)n1c3ccccc3c3c4c(c5c6ccccc6n2c5c31)C(=O)NC4` [Midostaurin] as the molecule, how does the normalised viability read?
A: 108%

Q: How did the normalised viability turn out when `CO[C@@]12[C@H](COC(N)=O)C3=C(C(=O)C(C)=C(N)C3=O)N1C[C@@H]1N[C@@H]12` [Mitomycin C] was run?
A: 89.1%

Q: For `CC1(C)CCC(c2ccc(Cl)cc2)=C(CN2CCN(c3ccc(C(=O)NS(=O)(=O)c4ccc(N[C@H](CCN5CCOCC5)CSc5ccccc5)c(S(=O)(=O)C(F)(F)F)c4)cc3)CC2)C1` [Navitoclax], which normalised viability is on record?
A: 75.5%

Q: Which normalised viability does the source give for `Cc1cn(-c2cc(NC(=O)c3ccc(C)c(Nc4nccc(-c5cccnc5)n4)c3)cc(C(F)(F)F)c2)cn1` [Nilotinib] here?
A: 99.6% and 95.5%

Q: Which normalised viability does the source give for `C=CCN(/C=C1/C(=O)O[C@H](COC)[C@@]2(C)C1=C(O)C(=O)C1=C2[C@H](OC(C)=O)C[C@]2(C)C(=O)CC[C@@H]12)CC=C` [PX-866] here?
A: 95.2%

Q: `CC[C@H](CO)Nc1nc(NCc2ccccc2)c2ncn(C(C)C)c2n1` [Roscovitine] was tested. Which normalised viability did it give?
A: 89%

Q: For `O=C(CCCCCCC(=O)Nc1ccccc1)NO` [Vorinostat], which normalised viability is on record?
A: 103% and 97.1%

test system: BT-549; test: as above; conditions: 10 nM; incubation time: 72 h
Procedure: as §1

Q: With `CCNC(=O)c1noc(-c2cc(C(C)C)c(O)cc2O)c1-c1ccc(CN2CCOCC2)cc1` [NVP-AUY922] as the molecule, how does the normalised viability read?
A: 42.2%

same assay, conditions: 100 nM; incubation time: 72 h

Q: Which normalised viability does the source give for `C=CCn1c(=O)c2cnc(Nc3ccc(N4CCN(C)CC4)cc3)nc2n1-c1cccc(C(C)(C)O)n1` [MK1775] here?
A: 97.4%

Q: `CN(Cc1cnc2nc(N)nc(N)c2n1)c1ccc(C(=O)N[C@@H](CCC(=O)O)C(=O)O)cc1` [Methotrexate] was tested. Which normalised viability did it give?
A: 87.2%

Q: For `COc1c2occc2cc2ccc(=O)oc12` [Methoxsalen], which normalised viability is on record?
A: 109%

Q: With `CO[C@@H]1[C@H](N(C)C(=O)c2ccccc2)C[C@H]2O[C@]1(C)n1c3ccccc3c3c4c(c5c6ccccc6n2c5c31)C(=O)NC4` [Midostaurin] as the molecule, how does the normalised viability read?
A: 88.1%

Q: Which normalised viability does the source give for `CO[C@@]12[C@H](COC(N)=O)C3=C(C(=O)C(C)=C(N)C3=O)N1C[C@@H]1N[C@@H]12` [Mitomycin C] here?
A: 74.4%

Q: With `CC1(C)CCC(c2ccc(Cl)cc2)=C(CN2CCN(c3ccc(C(=O)NS(=O)(=O)c4ccc(N[C@H](CCN5CCOCC5)CSc5ccccc5)c(S(=O)(=O)C(F)(F)F)c4)cc3)CC2)C1` [Navitoclax] as the molecule, how does the normalised viability read?
A: 97.2%

Q: How did the normalised viability turn out when `Cc1cn(-c2cc(NC(=O)c3ccc(C)c(Nc4nccc(-c5cccnc5)n4)c3)cc(C(F)(F)F)c2)cn1` [Nilotinib] was run?
A: 95.6% and 88.2%

Q: `C=CCN(/C=C1/C(=O)O[C@H](COC)[C@@]2(C)C1=C(O)C(=O)C1=C2[C@H](OC(C)=O)C[C@]2(C)C(=O)CC[C@@H]12)CC=C` [PX-866] was tested. Which normalised viability did it give?
A: 98.4%

Q: With `CC[C@H](CO)Nc1nc(NCc2ccccc2)c2ncn(C(C)C)c2n1` [Roscovitine] as the molecule, how does the normalised viability read?
A: 98.5%

Q: How did the normalised viability turn out when `O=C(CCCCCCC(=O)Nc1ccccc1)NO` [Vorinostat] was run?
A: 106% and 90%

test system: MDA-MB-468; test: as above; conditions: 10 nM; incubation time: 72 h
Procedure: as §1

Q: For `CCNC(=O)c1noc(-c2cc(C(C)C)c(O)cc2O)c1-c1ccc(CN2CCOCC2)cc1` [NVP-AUY922], which normalised viability is on record?
A: 51.6%

same assay, conditions: 100 nM; incubation time: 72 h

Q: Which normalised viability does the source give for `C=CCn1c(=O)c2cnc(Nc3ccc(N4CCN(C)CC4)cc3)nc2n1-c1cccc(C(C)(C)O)n1` [MK1775] here?
A: 95.5%

Q: `CN(Cc1cnc2nc(N)nc(N)c2n1)c1ccc(C(=O)N[C@@H](CCC(=O)O)C(=O)O)cc1` [Methotrexate] was tested. Which normalised viability did it give?
A: 46.3%

Q: `COc1c2occc2cc2ccc(=O)oc12` [Methoxsalen] was tested. Which normalised viability did it give?
A: 104%

Q: Which normalised viability does the source give for `CO[C@@H]1[C@H](N(C)C(=O)c2ccccc2)C[C@H]2O[C@]1(C)n1c3ccccc3c3c4c(c5c6ccccc6n2c5c31)C(=O)NC4` [Midostaurin] here?
A: 112%

Q: With `CO[C@@]12[C@H](COC(N)=O)C3=C(C(=O)C(C)=C(N)C3=O)N1C[C@@H]1N[C@@H]12` [Mitomycin C] as the molecule, how does the normalised viability read?
A: 92%

Q: `CC1(C)CCC(c2ccc(Cl)cc2)=C(CN2CCN(c3ccc(C(=O)NS(=O)(=O)c4ccc(N[C@H](CCN5CCOCC5)CSc5ccccc5)c(S(=O)(=O)C(F)(F)F)c4)cc3)CC2)C1` [Navitoclax] was tested. Which normalised viability did it give?
A: 84.2%

Q: `Cc1cn(-c2cc(NC(=O)c3ccc(C)c(Nc4nccc(-c5cccnc5)n4)c3)cc(C(F)(F)F)c2)cn1` [Nilotinib] was tested. Which normalised viability did it give?
A: 95.9% and 102%

Q: With `C=CCN(/C=C1/C(=O)O[C@H](COC)[C@@]2(C)C1=C(O)C(=O)C1=C2[C@H](OC(C)=O)C[C@]2(C)C(=O)CC[C@@H]12)CC=C` [PX-866] as the molecule, how does the normalised viability read?
A: 90.2%

Q: `CC[C@H](CO)Nc1nc(NCc2ccccc2)c2ncn(C(C)C)c2n1` [Roscovitine] was tested. Which normalised viability did it give?
A: 108%

Q: Which normalised viability does the source give for `O=C(CCCCCCC(=O)Nc1ccccc1)NO` [Vorinostat] here?
A: 104% and 97.3%

test system: BT-474; test: drug sensitivity score (DSS), CellTiter-Blue viability (DSS (AUC-based score)); higher = stronger viability inhibition; extreme values may be limits of the assay; conditions: incubation time: 72 h
Procedure: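 DSRT with the CellTiter-Blue (resazurin reduction) viability readout, fluorescence 560/590 nm, 72 h incubation. Plates were normalised to DMSO and benzethonium chloride controls. DSS is computed from the area under the fitted dose-response curve (5 or 9 concentrations).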

Q: `C=CCn1c(=O)c2cnc(Nc3ccc(N4CCN(C)CC4)cc3)nc2n1-c1cccc(C(C)(C)O)n1` [MK1775] was tested. Which drug sensitivity score did it give?
A: 13

Q: `CN(Cc1cnc2nc(N)nc(N)c2n1)c1ccc(C(=O)N[C@@H](CCC(=O)O)C(=O)O)cc1` [Methotrexate] was tested. Which drug sensitivity score did it give?
A: 0

Q: `COc1c2occc2cc2ccc(=O)oc12` [Methoxsalen] was tested. Which drug sensitivity score did it give?
A: 0

Q: For `CO[C@@H]1[C@H](N(C)C(=O)c2ccccc2)C[C@H]2O[C@]1(C)n1c3ccccc3c3c4c(c5c6ccccc6n2c5c31)C(=O)NC4` [Midostaurin], which drug sensitivity score is on record?
A: 0

Q: How did the drug sensitivity score turn out when `CO[C@@]12[C@H](COC(N)=O)C3=C(C(=O)C(C)=C(N)C3=O)N1C[C@@H]1N[C@@H]12` [Mitomycin C] was run?
A: 3.1

Q: Which drug sensitivity score does the source give for `CCNC(=O)c1noc(-c2cc(C(C)C)c(O)cc2O)c1-c1ccc(CN2CCOCC2)cc1` [NVP-AUY922] here?
A: 15.2

Q: `CC1(C)CCC(c2ccc(Cl)cc2)=C(CN2CCN(c3ccc(C(=O)NS(=O)(=O)c4ccc(N[C@H](CCN5CCOCC5)CSc5ccccc5)c(S(=O)(=O)C(F)(F)F)c4)cc3)CC2)C1` [Navitoclax] was tested. Which drug sensitivity score did it give?
A: 0

Q: `Cc1cn(-c2cc(NC(=O)c3ccc(C)c(Nc4nccc(-c5cccnc5)n4)c3)cc(C(F)(F)F)c2)cn1` [Nilotinib] was tested. Which drug sensitivity score did it give?
A: 0

Q: How did the drug sensitivity score turn out when `C=CCN(/C=C1/C(=O)O[C@H](COC)[C@@]2(C)C1=C(O)C(=O)C1=C2[C@H](OC(C)=O)C[C@]2(C)C(=O)CC[C@@H]12)CC=C` [PX-866] was run?
A: 5.22

Q: With `CC[C@H](CO)Nc1nc(NCc2ccccc2)c2ncn(C(C)C)c2n1` [Roscovitine] as the molecule, how does the drug sensitivity score read?
A: 0

Q: With `O=C(CCCCCCC(=O)Nc1ccccc1)NO` [Vorinostat] as the molecule, how does the drug sensitivity score read?
A: 6.34 and 8.1
